{"source": "patent US20040019092A1", "about": "“Non-peptide somatostatin receptor ligands” (priority 2001, published 2004)", "key": {"SSTR1": {"biological_target": "T1, SSTR1 (Homo sapiens, UniProt P30872)", "T1 construct": "host or cells: SRIF receptor expressing cell cultures (general statement only)", "T1 sequence (P30872 whole entry, species assumed)": "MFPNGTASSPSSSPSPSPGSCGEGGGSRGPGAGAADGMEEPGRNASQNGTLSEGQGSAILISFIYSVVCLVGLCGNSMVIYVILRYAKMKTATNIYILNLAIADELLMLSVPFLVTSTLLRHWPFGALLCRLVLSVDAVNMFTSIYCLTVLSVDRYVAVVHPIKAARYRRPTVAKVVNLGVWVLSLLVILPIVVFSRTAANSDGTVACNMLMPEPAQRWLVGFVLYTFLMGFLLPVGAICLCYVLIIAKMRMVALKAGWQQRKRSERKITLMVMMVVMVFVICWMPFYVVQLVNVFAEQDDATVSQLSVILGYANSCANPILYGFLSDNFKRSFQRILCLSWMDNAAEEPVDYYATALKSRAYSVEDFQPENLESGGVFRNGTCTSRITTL", "test": "Binding SSTR1", "settings": "> = extrapolated value; read-out: Bind SSTR1"}, "GH secretion [1]": {"test_system": "GH secretion", "test": "GH secretion in vivo, rat, intraduodenal (enteral) application, 1 h (basal)", "settings": "basal GH secretion, 1 h after intraduodenal application, mostly approximate ID50 from single 10 mg/kg dose, Ø = no effect at this dose, > = extrapolated value, 10 mg/kg", "method": "(§1) Animals, anesthesia: Male rats of a Sprague Dawley strain (Ico:OFA-SD, Iffa-Credo, F-Lyon) of 200-300 g body weight were used. They were kept under standardized conditions and were anesthetized with pentobarbital-sodium (Siegfried, CH Zofingen), 60 mg/kg i.p. for subcutaneous and intraduodenal applications. Animals designed for an infusion experiment were anesthetized with urethane (Siegfried, CH Zofingen), 1.2 g/kg i.p.\n(§2) Compounds: The compounds were dissolved, optionally with the aid of one or more of the following adjuncts:\n(§3) Stock solutions of the compounds were prepared in water with the addition of the necessary adjunct(s). Further dilutions were prepared allowing 5 mL/kg for subcutaneous application, 2 mL for intraduodenal (i.d.) application or 4.5 mL/kg for intravenous infusion. The solutions for the intravenous application/infusion were made isotonic by addition of glucose to a final concentration of 5%.\n(§4) Applications were made, or, in the case of infusion, started, approximately 10 minutes after induction of anesthesia. No further treatment followed subcutaneous or intraduodenal application. Ten, twenty-five and fifty-five minutes after start of the intravenous infusion the GH secretion was stimulated with repeated intravenous injections of the potent GHRH analog, D-Ala2 GHRH1-29NH2, 1 μg/kg.\n(§5) One hour after subcutaneous or intraduodenal application of the compounds, blood was collected from the trunk after decapitation. In the case of application by infusion, 5 minutes after each application of GHRH, a blood sample of 0.8 mL was taken from a V. jugularis and mixed with EDTA (Eppendorf tubes TOM14, Milian, CH Geneva). The blood samples were kept on ice and spun in a cooled centrifuge. The serum or plasma was separated and frozen.\n(§6) Statistics: In each experiment, 4-5 animals were used per dose, with 6 to 8 animals as the control group that received the vehicle. The GH serum/plasma levels were averaged, the mean of the treated groups expressed in percent of the control group and the ID50-value for the inhibition of the secretion was determined graphically (log-probit) for each experiment. In most experiments with enteral (intraduodenal) application only 1 dose, 10 mg/kg, was given. […] Only inhibitions between 20 and 80% were considered reliable.\n(§7) Two to four experiments were performed. In the case of proper dose response curves, allowing the determination of an ID50 values were averaged logarithmically. In the cases of single dose-experiments, the GH value in percent of control were averaged logarithmically and the ID50 for this value was taken from the table. ID50 values determined at the different time points during the infusion were averaged and this value was included in the tables."}, "[2]": {"biological_target": "T2, human sst2 receptor sub-type (Homo sapiens, UniProt P30874)", "T2 construct": "host or cells: SRIF receptor expressing cell cultures (general statement only)", "T2 sequence (P30874 whole entry)": "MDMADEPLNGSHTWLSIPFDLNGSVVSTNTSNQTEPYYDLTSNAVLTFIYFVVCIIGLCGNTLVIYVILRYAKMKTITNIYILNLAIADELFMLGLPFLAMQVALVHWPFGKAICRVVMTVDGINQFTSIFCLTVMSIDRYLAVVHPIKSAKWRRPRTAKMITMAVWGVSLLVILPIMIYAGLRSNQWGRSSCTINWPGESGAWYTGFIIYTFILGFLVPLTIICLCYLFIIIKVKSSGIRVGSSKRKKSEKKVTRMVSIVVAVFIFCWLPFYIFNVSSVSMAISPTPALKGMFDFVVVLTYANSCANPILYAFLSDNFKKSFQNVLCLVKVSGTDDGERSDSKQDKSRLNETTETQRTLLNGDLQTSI", "test": "In vitro binding, human sst2 receptor sub-type (SSTR2)", "settings": "Tables 8/9: Bind SSTR2 nM", "method": "The in vitro binding affinities for rat cortex SRIF receptors and the human sst2 receptor sub-type was assessed. Further the in vitro inhibition of the GHRH induced GH secretion in primary cultures of rat pituitary cells as well as the in vivo inhibition of GH secretion in the rat after systemic or enteral application was studied. […] Therefore, the in vivo activities of the compounds in rats with respect to inhibition of growth hormone release was also assessed. Most compounds selected were tested by enteral—intraduodenal (i.d.) application. For determination of the absolute activity and for the calculation of an enteral bioavailability, single subcutaneous (s.c.) application of intravenous (i.v.) infusion was used."}, "GH secretion [3]": {"test_system": "GH secretion", "test": "GH secretion in vivo, rat, subcutaneous application, 1 h (basal)", "settings": "rat, basal GH secretion, 1 h after subcutaneous application", "method": "as §1, §2, §3, §4, §5, §6, §7"}, "[4]": {"test_system": "basal plasma levels of growth hormone, glucagon, insulin and glucose", "test": "Endocrine parameters in the Rhesus monkey after subcutaneous administration", "assay_type": "in vivo", "method": "Therefore, they were further investigated in the Rhesus monkey and their activity profile was determined. Using subcutaneous administration, they were characterized in this species, by measuring their effects on the basal plasma levels of growth hormone, glucagon, insulin as well changes in glucose levels.\nAnimals and blood sampling: Rhesus monkeys, fed on the previous day in the morning with fruits only, were placed, slightly anesthetized with ketamin (Ketalar©, Parke-Davis), in primate chairs and brought to the experimental room. A catheter, consisting of an in-dwelling cannula (Vasocan Braunüle, 20G, B. Braun Melsungen AG, D-Melsungen), an extension line made from PP 800/110/260/100 Portex© tubing and a special adapter between cannula and tubing with a minimal void volume, was placed in a saphenic vein. The total volume of this catheter was approximately 0.7 mL. The distal end was placed through a hole in the wall to the adjacent room in order to allow infusion and blood sampling without being noticed by the animal. The animals were monitored with a video system.\nDuring the entire duration of the experiment an infusion of 5 to 10 mL/h of isotonic saline (NaCl 0.9% Braun, B. Braun Medical AG, CH-Emmenbrücke) containing heparin sodium 80 mg/L (Biochemie GMBH, A-Kundl) was maintained, using a roller pump (Vario-Perpex, Guldener, CH-Zürich). At each sampling time 1.5 mL (twice the void volume of the catheter) was taken in one syringe before collecting the actual blood sample of 2 mL in another syringe. The first 1.5 mL were reinfused immediately after the actual sample had been taken. The sample was mixed with 0.1 mL of a mixture containing EDTA (ethlenediaminetetraacetic acid tetrasodium Fluka, CH-Buchs) and aprotinin (Trasylol©, Bayer) resulting in final concentrations of 1.8 mg/mL and 1000 KIE/mL, respectively. The blood samples were kept on ice and spun in a cooled centrifuge. […]\nDeterminations: The blood levels of the hormones were determined by radioimmunoassay (RIA) using the appropriate antisera, antibodies, labels and standards, glucose by an enzymatic assay: […]"}, "[5]": {"test_system": "GHRH stimulated GH secretion", "test": "GH secretion in vivo, rat, intravenous infusion with repeated GHRH stimulation", "method": "as §1, §3, §4, §5, §6, §7"}, "SSTR3": {"biological_target": "T3, SSTR3 (Homo sapiens, UniProt P32745)", "T3 construct": "host or cells: SRIF receptor expressing cell cultures (general statement only)", "T3 sequence (P32745 whole entry, species assumed)": "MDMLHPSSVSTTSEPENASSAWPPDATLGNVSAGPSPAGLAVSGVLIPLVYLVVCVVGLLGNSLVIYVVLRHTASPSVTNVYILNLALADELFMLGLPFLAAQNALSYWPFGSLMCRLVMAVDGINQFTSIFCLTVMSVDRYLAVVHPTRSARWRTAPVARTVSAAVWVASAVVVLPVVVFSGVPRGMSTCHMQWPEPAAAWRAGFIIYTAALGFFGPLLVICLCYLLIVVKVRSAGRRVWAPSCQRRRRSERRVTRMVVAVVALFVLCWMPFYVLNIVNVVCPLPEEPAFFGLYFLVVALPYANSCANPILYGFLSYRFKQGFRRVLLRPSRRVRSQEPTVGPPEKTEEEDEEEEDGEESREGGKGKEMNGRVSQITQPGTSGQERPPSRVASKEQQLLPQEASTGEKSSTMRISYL", "test": "Binding SSTR3", "settings": "> = extrapolated value; read-out: Bind SSTR3"}, "SSTR5": {"biological_target": "T4, SSTR5 (Homo sapiens, UniProt P35346)", "T4 construct": "host or cells: SRIF receptor expressing cell cultures (general statement only)", "T4 sequence (P35346 whole entry, species assumed)": "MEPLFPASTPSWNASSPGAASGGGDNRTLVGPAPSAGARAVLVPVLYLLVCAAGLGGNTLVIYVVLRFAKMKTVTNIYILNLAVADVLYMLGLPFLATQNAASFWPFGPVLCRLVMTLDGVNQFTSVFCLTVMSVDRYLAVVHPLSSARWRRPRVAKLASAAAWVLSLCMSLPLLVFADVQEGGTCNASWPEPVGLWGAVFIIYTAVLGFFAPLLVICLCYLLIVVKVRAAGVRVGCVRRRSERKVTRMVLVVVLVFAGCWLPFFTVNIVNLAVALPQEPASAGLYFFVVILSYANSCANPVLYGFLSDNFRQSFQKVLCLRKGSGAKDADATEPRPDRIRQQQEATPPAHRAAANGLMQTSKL", "test": "Binding SSTR5", "settings": "read-out: Bind SSTR5"}, "SSTR4": {"biological_target": "T5, SSTR4 (Homo sapiens, UniProt P31391)", "T5 construct": "host or cells: SRIF receptor expressing cell cultures (general statement only)", "T5 sequence (P31391 whole entry, species assumed)": "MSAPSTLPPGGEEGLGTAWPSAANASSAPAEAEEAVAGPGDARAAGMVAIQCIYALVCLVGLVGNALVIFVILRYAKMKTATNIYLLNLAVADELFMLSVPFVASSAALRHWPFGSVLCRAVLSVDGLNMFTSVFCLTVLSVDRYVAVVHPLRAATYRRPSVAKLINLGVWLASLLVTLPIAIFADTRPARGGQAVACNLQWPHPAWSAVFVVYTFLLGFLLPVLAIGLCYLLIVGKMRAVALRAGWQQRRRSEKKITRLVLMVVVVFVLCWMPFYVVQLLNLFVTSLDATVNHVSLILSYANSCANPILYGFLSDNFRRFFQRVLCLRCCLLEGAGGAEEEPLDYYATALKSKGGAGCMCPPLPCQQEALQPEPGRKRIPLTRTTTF", "test": "Binding SSTR4", "settings": "> = extrapolated value; read-out: Bind SSTR4"}, "SS1": {"biological_target": "SS1 (Rattus norvegicus, UniProt P30680)", "sequence (P30680 whole entry)": "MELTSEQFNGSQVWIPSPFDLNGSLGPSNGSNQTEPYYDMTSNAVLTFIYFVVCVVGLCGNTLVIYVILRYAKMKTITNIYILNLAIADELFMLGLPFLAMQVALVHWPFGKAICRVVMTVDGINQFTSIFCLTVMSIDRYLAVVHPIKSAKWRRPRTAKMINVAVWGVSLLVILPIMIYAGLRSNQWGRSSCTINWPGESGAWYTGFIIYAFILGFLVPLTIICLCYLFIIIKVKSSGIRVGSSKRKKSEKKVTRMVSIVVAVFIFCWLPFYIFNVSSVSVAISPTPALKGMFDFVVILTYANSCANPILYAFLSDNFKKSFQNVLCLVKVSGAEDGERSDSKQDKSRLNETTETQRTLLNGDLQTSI", "test": "SS-1 binding (Bind SS1 D.H.)"}}, "note": "Values joined by “and” are separate entries in the source; they are usually repeats but may differ in a detail not shown here. Identical values can stand only once.", "data": [{"smiles": "Cc1cccc2c(CC3C(=O)N(CCCCCN)C(=O)N3S(=O)(=O)c3ccc(Oc4ccc(O)cc4)c(C(=O)N(C)C)c3)c[nH]c12", "note": "(stereo not drawn) [Compound 46]", "values": [{"measurement": "IC50", "setting": "SSTR1", "result": "> 1000", "unit": "nM"}, {"measurement": "GH vivo i.d. 1 h ID50", "setting": "GH secretion [1]", "result": 19000, "unit": "µg/kg"}, {"measurement": "IC50", "setting": "[2]", "result": 0.43, "unit": "nM"}, {"measurement": "GH vivo s.c. 1 h ID50", "setting": "GH secretion [3]", "result": "7.4 µg/kg and 7 µg/kg"}, {"measurement": "GH vivo s.c. 1 h ID50", "setting": "GH secretion [3]; listed as 46 b", "result": "˜7.40 μg/kg"}, {"measurement": "dose levels necessary for inhibition of hormone release, times higher than Octreotride", "setting": "[4]", "result": "about 100 times"}, {"measurement": "INFUS. + GHRH ID50 MEAN", "setting": "[5]; Table 4, mean of infusion time points", "result": 7.89, "unit": "µg/kg"}, {"measurement": "INFUS. + GHRH ID50 15′", "setting": "[5]; Table 4, urethan, 15′ of infusion", "result": 9.38, "unit": "µg/kg"}, {"measurement": "INFUS. + GHRH ID50 30′", "setting": "[5]; Table 4, urethan, 30′ of infusion", "result": 8.14, "unit": "µg/kg"}, {"measurement": "INFUS. + GHRH ID50 60′", "setting": "[5]; Table 4, urethan, 60′ of infusion", "result": 6.43, "unit": "µg/kg"}, {"measurement": "GH, Ur Inf15′ +GHRH", "setting": "[5]; Tables 8/9, urethane, 15′ of infusion", "result": 9.400, "unit": "µg/kg/h"}, {"measurement": "GH, UR Inf30′ +GHRH", "setting": "[5]; Tables 8/9, urethane, 30′ of infusion", "result": 8.100, "unit": "µg/kg/h"}, {"measurement": "GH, UR Inf60′ +GHRH", "setting": "[5]; Tables 8/9, urethane, 60′ of infusion", "result": 6.400, "unit": "µg/kg/h"}, {"measurement": "GH vivo Inf + GHRH ID50 (mean of time points)", "setting": "[5]; urethane, i.v. infusion, GHRH stimulated, listed as 46 b", "result": "7.89 µg/kg/h and 7.900 µg/kg/h"}, {"measurement": "IC50", "setting": "SSTR3", "result": 450, "unit": "nM"}, {"measurement": "IC50", "setting": "SSTR5", "result": 90, "unit": "nM"}, {"measurement": "IC50", "setting": "SSTR4", "result": "> 1000", "unit": "nM"}, {"measurement": "Bind SS1 D.H.", "setting": "SS1", "result": 0.63, "unit": "nM"}]}]}
